According to the supplement of paper PMC10307832:

How the values were obtained:
Assay in all cases: relative viability (nuclei count vs DMSO), 5 days (fraction); higher = more cells survive
R406 + Pictilisib = compound: COc1cc(Nc2ncc(F)c(Nc3ccc4c(n3)NC(=O)C(C)(C)O4)n2)cc(OC)c1OC [R406] + CS(=O)(=O)N1CCN(Cc2cc3nc(-c4cccc5[nH]ncc45)nc(N4CCOCC4)c3s2)CC1 [Pictilisib] (partner 1 µM)
Outline: (§1)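 For relative viability, nuclei counts in treated wells were divided by those in vehicle wells. Lung cancer cell lines had been pin-tool dosed in 1536-well plates the day after seeding and cultured for 5 days, then fixed and stained in one step (final 0.05% Triton X-100, 1% formaldehyde, 1 ug/ml Hoechst) and imaged at 4×. Doses were one drug alone or a fixed anchor-drug dose plus five library-drug doses (not always all listed) in √10 steps, and values are duplicate-plate medians.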

Daporinad + Trametinib = compound: O=C(/C=C/c1cccnc1)NCCCCC1CCN(C(=O)c2ccccc2)CC1 [Daporinad] + CC(=O)Nc1cccc(-n2c(=O)n(C3CC3)c(=O)c3c(Nc4ccc(I)cc4F)n(C)c(=O)c(C)c32)c1 [Trametinib] (partner 0.02 µM)
Outline: as §1

R406 + Decitabine = compound: COc1cc(Nc2ncc(F)c(Nc3ccc4c(n3)NC(=O)C(C)(C)O4)n2)cc(OC)c1OC [R406] + Nc1ncn([C@H]2C[C@H](O)[C@@H](CO)O2)c(=O)n1 [Decitabine] (partner 2 µM)
Outline: as §1

Daporinad + AZD7762 = compound: O=C(/C=C/c1cccnc1)NCCCCC1CCN(C(=O)c2ccccc2)CC1 [Daporinad] + NC(=O)Nc1cc(-c2cccc(F)c2)sc1C(=O)N[C@H]1CCCNC1 [AZD7762] (partner 0.2 µM)
Outline: as §1

| Cell Line | relative viability (R406 + Pictilisib; first compound 0.08 µM) | relative viability (R406 + Pictilisib; first compound 0.253 µM) | relative viability (R406 + Pictilisib; first compound 0.8 µM) | relative viability (R406 + Pictilisib; first compound 2.53 µM) | relative viability (R406 + Pictilisib; first compound 8 µM) | relative viability (Daporinad + Trametinib; first compound 0.0005 µM) | relative viability (Daporinad + Trametinib; first compound 0.001581 µM) | relative viability (Daporinad + Trametinib; first compound 0.005 µM) | relative viability (Daporinad + Trametinib; first compound 0.01581 µM) | relative viability (R406 + Decitabine; first compound 0.08 µM) | relative viability (R406 + Decitabine; first compound 0.253 µM) | relative viability (R406 + Decitabine; first compound 0.8 µM) | relative viability (R406 + Decitabine; first compound 2.53 µM) | relative viability (R406 + Decitabine; first compound 8 µM) | relative viability (Daporinad + AZD7762; first compound 0.0005 µM) | relative viability (Daporinad + AZD7762; first compound 0.001581 µM) | relative viability (Daporinad + AZD7762; first compound 0.005 µM) | relative viability (Daporinad + AZD7762; first compound 0.01581 µM) |
| --- | --- | --- | --- | --- | --- | --- | --- | --- | --- | --- | --- | --- | --- | --- | --- | --- | --- | --- |
| 201T | 0.677 | 0.725 | 0.669 | 0.591 | 0.57 | 0.713 | 0.731 | 0.705 | 0.735 | 0.838 | 0.847 | 0.861 | 0.839 | 0.586 | 0.572 | 0.673 | 0.671 | 0.535 |
| A549 | 0.519 | 0.694 | 0.6 | 0.265 | 0.0797 | – | – | – | – | 0.22 | 0.261 | 0.257 | 0.258 | 0.311 | – | – | – | – |
| A-427 | 0.72 | 0.846 | 0.69 | 0.548 | 0.546 | 0.695 | 0.825 | 0.778 | 0.708 | 0.583 | 0.626 | 0.717 | 0.514 | 0.571 | 0.83 | 0.765 | 0.759 | 0.529 |
| ABC-1 | 1 | 0.817 | 0.72 | 0.393 | 0.45 | – | – | – | – | 1.02 | 1.21 | 1.03 | 0.793 | 0.736 | 0.83 | 0.798 | 0.823 | 1.1 |
| BEN | 0.581 | 0.642 | 0.57 | 0.623 | 0.447 | 1.01 | 0.996 | 1.06 | 1.18 | 0.679 | 0.793 | 0.726 | 0.683 | 0.441 | 0.779 | 0.661 | 0.812 | 0.824 |
| CAL-12T | 0.296 | 0.575 | 0.457 | 0.193 | 0.185 | 0.275 | 0.378 | 0.37 | 0.229 | – | – | – | – | – | 0.553 | 0.528 | 0.609 | 0.333 |
| COR-L23 | 0.755 | 0.926 | 1.14 | 0.681 | 0.233 | 0.577 | 0.662 | 0.737 | 0.302 | 0.397 | 0.447 | 0.512 | 0.339 | 0.326 | – | – | – | – |
| COR-L 105 | 0.453 | 0.401 | 0.38 | 0.366 | 0.303 | 0.445 | 0.41 | 0.496 | 0.469 | 0.593 | 0.561 | 0.758 | 0.563 | 0.475 | – | – | – | – |
| Calu-6 | 0.861 | 0.957 | 1.01 | 0.585 | 0.369 | – | – | – | – | – | – | – | – | – | – | – | – | – |
| ChaGo-K-1 | 0.719 | 0.917 | 0.791 | 0.584 | 0.391 | 0.86 | 0.914 | 0.767 | 0.428 | 0.491 | 0.546 | 0.557 | 0.504 | 0.506 | 0.834 | 0.903 | 0.755 | 0.3 |
| EBC-1 | 0.462 | 0.371 | 0.528 | 0.26 | 0.162 | – | – | – | – | – | – | – | – | – | – | – | – | – |
| EKVX | 0.436 | 0.41 | 0.422 | 0.357 | 0.347 | 0.288 | 0.329 | 0.43 | 0.372 | 0.341 | 0.365 | 0.316 | 0.336 | 0.354 | 0.586 | 0.676 | 0.933 | 0.705 |
| EMC-BAC-2 | 0.566 | 0.58 | 0.585 | 0.502 | 0.323 | 0.868 | 0.935 | 0.8 | 0.433 | 0.942 | 1.03 | 1.06 | 0.974 | 0.855 | 1.09 | 1.28 | 1.02 | 0.413 |
| EPLC-272H | 0.293 | 0.326 | 0.328 | 0.156 | 0.119 | 0.295 | 0.317 | 0.284 | 0.31 | 0.354 | 0.391 | 0.436 | 0.26 | 0.21 | 0.19 | 0.271 | 0.268 | 0.297 |
| H3255 | 0.48 | 0.533 | 0.495 | 0.347 | 0.331 | 0.557 | 0.637 | 0.645 | 0.71 | 0.656 | 0.589 | 0.714 | 0.571 | 0.458 | 0.869 | 1.04 | 1.03 | 0.972 |
| HARA | 0.416 | 0.349 | 0.405 | 0.248 | 0.187 | 0.833 | 0.761 | 0.627 | 0.403 | 0.414 | 0.597 | 0.586 | 0.584 | 0.178 | 0.232 | 0.522 | 0.299 | 0.16 |
| HCC-15 | 0.702 | 0.896 | 0.827 | – | 0.693 | 0.339 | 0.429 | 0.39 | 0.418 | 0.636 | 0.788 | 0.687 | 0.603 | 0.389 | 1.16 | 1.33 | 1.26 | 1.15 |
